Assay [1] has as its target T1, A-DA lipid probe targets in A549 cells (Homo sapiens, UniProt Q9UH99).
T1 sequence (Q9UH99 1-717): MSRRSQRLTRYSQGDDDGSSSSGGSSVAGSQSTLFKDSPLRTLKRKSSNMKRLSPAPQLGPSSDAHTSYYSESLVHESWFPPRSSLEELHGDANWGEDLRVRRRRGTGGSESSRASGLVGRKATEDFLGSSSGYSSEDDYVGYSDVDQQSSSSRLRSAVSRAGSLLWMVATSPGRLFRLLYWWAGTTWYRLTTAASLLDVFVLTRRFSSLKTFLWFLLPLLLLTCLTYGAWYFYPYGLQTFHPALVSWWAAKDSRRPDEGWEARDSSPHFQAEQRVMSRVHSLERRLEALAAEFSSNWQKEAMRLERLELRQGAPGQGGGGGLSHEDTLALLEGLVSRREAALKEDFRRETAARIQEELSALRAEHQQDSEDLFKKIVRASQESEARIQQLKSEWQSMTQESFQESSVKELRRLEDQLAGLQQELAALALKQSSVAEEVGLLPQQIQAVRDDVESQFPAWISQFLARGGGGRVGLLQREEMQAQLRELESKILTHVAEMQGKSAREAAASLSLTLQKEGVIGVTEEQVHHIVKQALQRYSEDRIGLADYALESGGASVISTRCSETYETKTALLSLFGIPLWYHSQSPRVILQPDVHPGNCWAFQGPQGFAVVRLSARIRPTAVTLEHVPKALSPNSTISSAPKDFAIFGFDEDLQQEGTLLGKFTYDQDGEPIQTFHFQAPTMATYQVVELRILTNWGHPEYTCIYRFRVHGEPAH
As to the kind of experiment: In situ competitive SILAC profiling with A-DA probe in (PMA-stimulated) A549 cells. As to conditions: protein SUN2 (Q9UH99), A549 cells.

Assay [2] addresses A-DA lipid probe targets in A549 cells (Homo sapiens, UniProt P48449). The description is as above. As to conditions: A549 cells, A-DA 5 μM, drug 5 μM; only two off-targets (TMEM97 and EBP).
Assay [3] deals with A-DA lipid probe targets in A549 cells (Homo sapiens, UniProt Q5HYK3). Described as above. As to conditions: A549 cells, A-DA probe.
Chain of A-DA lipid probe targets in A549 cells (Homo sapiens, UniProt Q5HYK3) (Q5HYK3 43-327): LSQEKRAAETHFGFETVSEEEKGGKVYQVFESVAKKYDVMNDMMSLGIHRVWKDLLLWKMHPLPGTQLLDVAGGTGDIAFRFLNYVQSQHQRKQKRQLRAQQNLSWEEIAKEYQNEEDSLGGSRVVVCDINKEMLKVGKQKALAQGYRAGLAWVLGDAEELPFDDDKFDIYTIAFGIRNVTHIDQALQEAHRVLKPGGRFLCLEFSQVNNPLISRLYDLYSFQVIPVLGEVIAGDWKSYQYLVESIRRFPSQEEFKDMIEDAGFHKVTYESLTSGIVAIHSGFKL
Assay [4] concerns the target T2, AEA-DA-modified peptides in Neuro2a cells (Mus musculus, UniProt Q9JKW0).
T2 construct: endogenous in cells; host or cells: Neuro2a
As to the kind of experiment: isoTOP-ABPP mapping of AEA-DA-modified peptides in Neuro2a cells. In kind it is cell-based. As to conditions: AEA-DA-modified peptide ARL6IP1 Q9JKW0 8-36, SEQ ID NO 15; probe 100 μM, 12 replicates.

Assay [5] has as its target T3, AEA-DA-modified peptides in Neuro2a cells (Mus musculus, UniProt P14733).
T3 construct: endogenous in cells; host or cells: Neuro2a
The assay is described as above. In kind it is cell-based. The conditions noted are these: AEA-DA-modified peptide LMNB1 P14733 159-183, SEQ ID NO 56; probe 100 μM, 12 replicates.

In assay [6] the target is T4, AEA-DA-modified peptides in Neuro2a cells (Mus musculus, UniProt Q91WC3).
T4 construct: endogenous in cells; host or cells: Neuro2a
T4 sequence (Q91WC3 whole entry): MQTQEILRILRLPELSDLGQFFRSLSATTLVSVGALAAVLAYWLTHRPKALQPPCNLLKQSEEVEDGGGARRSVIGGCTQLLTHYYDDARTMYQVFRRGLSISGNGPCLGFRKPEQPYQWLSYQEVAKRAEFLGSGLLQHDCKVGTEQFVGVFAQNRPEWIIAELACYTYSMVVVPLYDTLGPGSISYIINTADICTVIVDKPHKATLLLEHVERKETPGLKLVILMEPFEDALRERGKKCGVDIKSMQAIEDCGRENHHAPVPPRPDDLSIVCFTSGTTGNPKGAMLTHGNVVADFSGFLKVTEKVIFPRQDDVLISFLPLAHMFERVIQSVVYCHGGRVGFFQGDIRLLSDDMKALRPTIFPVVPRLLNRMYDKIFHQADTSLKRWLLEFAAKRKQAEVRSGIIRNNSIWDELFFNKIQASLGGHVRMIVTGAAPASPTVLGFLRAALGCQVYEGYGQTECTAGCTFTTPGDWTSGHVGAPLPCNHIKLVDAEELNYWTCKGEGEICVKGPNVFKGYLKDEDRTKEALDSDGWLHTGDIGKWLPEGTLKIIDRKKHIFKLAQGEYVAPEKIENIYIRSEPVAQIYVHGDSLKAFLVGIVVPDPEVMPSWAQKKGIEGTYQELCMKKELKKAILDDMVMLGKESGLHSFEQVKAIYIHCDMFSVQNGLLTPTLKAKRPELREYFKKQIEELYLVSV
The assay is described as above. It counts as cell-based. As to conditions: AEA-DA-modified peptide ACSL6 Q91WC3 408-420, SEQ ID NO 3; probe 100 μM, 12 replicates.

In assay [7] the target is T5, AEA-DA-modified peptides in Neuro2a cells (Mus musculus, UniProt Q9CPU0).
T5 construct: endogenous in cells; host or cells: Neuro2a
T5 sequence (Q9CPU0 whole entry): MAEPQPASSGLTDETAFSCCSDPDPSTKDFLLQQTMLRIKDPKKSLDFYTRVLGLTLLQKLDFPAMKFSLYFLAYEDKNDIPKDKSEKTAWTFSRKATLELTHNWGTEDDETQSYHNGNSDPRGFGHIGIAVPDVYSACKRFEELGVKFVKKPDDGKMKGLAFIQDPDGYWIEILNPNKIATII
The description is as above. It counts as cell-based. As to conditions: AEA-DA-modified peptide GLO1 Q9CPU0 160-180, SEQ ID NO 42; probe 100 μM, 12 replicates.

Chain of A-DA lipid probe targets in A549 cells (Homo sapiens, UniProt P48449) (P48449 whole entry): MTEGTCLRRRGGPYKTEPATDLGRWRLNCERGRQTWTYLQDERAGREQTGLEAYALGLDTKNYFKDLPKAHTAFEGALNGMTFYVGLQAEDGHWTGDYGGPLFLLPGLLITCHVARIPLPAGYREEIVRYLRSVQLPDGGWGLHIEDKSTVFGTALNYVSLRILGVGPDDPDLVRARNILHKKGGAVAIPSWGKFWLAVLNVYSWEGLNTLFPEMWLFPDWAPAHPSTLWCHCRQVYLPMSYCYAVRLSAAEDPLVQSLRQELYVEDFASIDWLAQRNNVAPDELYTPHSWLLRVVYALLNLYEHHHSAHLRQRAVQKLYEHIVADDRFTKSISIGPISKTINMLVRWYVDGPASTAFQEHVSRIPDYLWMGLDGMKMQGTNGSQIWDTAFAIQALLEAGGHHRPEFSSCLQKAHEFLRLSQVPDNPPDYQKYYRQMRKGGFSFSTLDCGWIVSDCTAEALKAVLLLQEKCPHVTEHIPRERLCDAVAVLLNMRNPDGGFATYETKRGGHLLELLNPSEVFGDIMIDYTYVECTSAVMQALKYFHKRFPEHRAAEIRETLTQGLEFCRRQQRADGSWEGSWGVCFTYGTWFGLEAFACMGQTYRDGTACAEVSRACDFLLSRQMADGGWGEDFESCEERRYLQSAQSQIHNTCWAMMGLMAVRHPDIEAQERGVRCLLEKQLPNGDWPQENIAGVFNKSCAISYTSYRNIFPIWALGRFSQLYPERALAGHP
T2 sequence (Q9JKW0 whole entry): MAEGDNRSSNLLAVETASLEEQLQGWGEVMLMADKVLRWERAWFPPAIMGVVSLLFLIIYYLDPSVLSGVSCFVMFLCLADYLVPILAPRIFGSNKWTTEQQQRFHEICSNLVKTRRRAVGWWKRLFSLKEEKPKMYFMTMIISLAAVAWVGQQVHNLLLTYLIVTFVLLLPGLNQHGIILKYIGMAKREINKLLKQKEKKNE
T3 sequence (P14733 whole entry): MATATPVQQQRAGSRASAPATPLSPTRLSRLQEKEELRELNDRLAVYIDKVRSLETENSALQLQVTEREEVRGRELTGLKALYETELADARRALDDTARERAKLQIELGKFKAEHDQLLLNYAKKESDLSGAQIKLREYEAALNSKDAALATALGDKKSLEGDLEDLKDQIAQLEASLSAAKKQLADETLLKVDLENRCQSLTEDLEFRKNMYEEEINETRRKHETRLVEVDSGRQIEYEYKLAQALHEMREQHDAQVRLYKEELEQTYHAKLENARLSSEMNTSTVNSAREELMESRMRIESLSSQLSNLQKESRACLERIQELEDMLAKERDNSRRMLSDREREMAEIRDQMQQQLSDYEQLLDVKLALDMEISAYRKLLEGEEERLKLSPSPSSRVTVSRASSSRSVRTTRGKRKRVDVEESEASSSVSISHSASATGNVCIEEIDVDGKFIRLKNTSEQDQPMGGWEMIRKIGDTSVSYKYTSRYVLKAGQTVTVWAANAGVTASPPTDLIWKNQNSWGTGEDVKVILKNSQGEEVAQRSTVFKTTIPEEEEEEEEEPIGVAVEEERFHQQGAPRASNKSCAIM

In the case of `C=CCN(C)CCCCCCOc1ccc(C(=O)c2ccc(Br)cc2)c(F)c1` [Ro 48-8071, reference compound], the “SILAC ratio, A-DA competition” value in assay [1] (competitor 5.0 μM) and in assay [1] (competitor 50 μM) was 1.3 in each case. The “competition of probe labeling of LSS” value in assay [2] was “fully competed”.

Regarding `C=CCN(C)CCCCCCOc1ccc(C(=O)c2ccc(Br)cc2)c(F)c1` [Ro488071], the “SILAC ratio, COQ5 (Q5HYK3)” value in assay [3] (competitor 5 μM) is 2.0; in assay [3] (competitor 50 μM) it was 3.4.

For the molecule `C#CCCCC1(CC/C=C\C/C=C\C/C=C\CCCC(=O)NCCO)N=N1` [AEA-DA, (5Z,8Z,11Z)-N-(2-hydroxyethyl)-14-(3-(pent-4-yn-1-yl)-3H-diazirin-3-yl)tetradeca-5,8,11-trienamide], the Times observed came to 2 in assay [4], 2 in assay [5], 6 in assay [6] and 2 in assay [7].

The values are drawn from US10168342B2, “Lipid probes and uses thereof” (THE SCRIPPS RESEARCH INSTITUTE, priority 2015, dated 2019).
